Melting point and IC50 data for 4 compounds are collected here from patent publication US7659275B2, “Piperidinyl piperazine derivatives useful as inhibitors of chemokine receptors” (priority 2005, dated 2010).

For data set [1], the system named is HIV-1 YU-2 luciferase reporter virus in U87-CD4-CCR5 cells. Nature of the data set: Luciferase Replication assay (HIV replication). It counts as cell-based. The note with it: Human immunodeficiency virus 1, U87/CD4/CCR5, 72 h, read-out: HIV Replication IC50 luciferase (nM, Yu-2). The protocol:
Luciferase Replication Assay:
Plasmids encoding the full length genome of HIV-1 pNL-4-Luc with the gp 120 V-3 loop replaced by the Bgl II fragment of HIV-1 ADA, YU-2 or HxB (ADA-Luc-FL, YU-2-Luc-FL and HxB-Luc-FL) were obtained from Dr. Susan Pontow (Washington University, St. Louis Mo.). Replication-competent luciferase reporter virus stocks were generated by transfection of plasmids into 293T cells using Superfect (Qiagen) or Mirus transfection reagents. Viral stocks were collected 48 hours following transfection and titered for luciferase production on U-87-CCR5 or CXCR4 cells. U87-CD4-CCR5 cells ([…]) were plated in 96-well cell culture plates and incubated overnight. Media was removed and replaced with 50 μl of fresh culture media (DMEM, 10% FCS) and 50 μl of compound diluted in culture medium. Cells were incubated with compound at 37° C. for 1 hour. The resultant supernatant was removed and replaced with 20 μl of media containing compound and infected with an equal volume of diluted or undiluted virus stock at 37° C. for 3-4 hours. The cells were washed once with DMEM, and 200 μl of media containing compound was added. The cultures were incubated for 3 days, the cells lysed in luciferase lysis buffer (Promega, Madison, Wis.) and transferred to Immulon plates (Dynex Technologies, Chantilly Va.). An equal volume of luciferase substrate (Promega, Madison Wis.) was added to lysates and the plates read immediately in a Wallac Luminometer. Fifty and ninety percent inhibitory concentrations were determined using GraphPad PRISM software.

Take `Cc1nn(O)c(C)c1C(=O)N1CCC(C)(N2CCN([C@@H](c3cccc(F)c3)C3CCN(S(=O)(=O)C4CC4)CC3)[C@@H](C)C2)CC1`: the melting point is 214 to 215 °C. Also, the half-inhibitory concentration (IC50) in data set [1] is 43 nM.

As to `CC[C@@H](c1ccc(C(F)(F)F)cc1)N1CCN(C2(C)CCN(C(=O)c3c(C)nn(O)c3C)CC2)C[C@@H]1C`, the IC50 in data set [1] was above 100 nM.

`COC[C@@H](c1ccc(C(F)(F)F)cc1)N1CCN(C2(C)CCN(C(=O)c3c(C)nn(O)c3C)CC2)C[C@@H]1C`: the 50% inhibitory concentration (IC50) in data set [1] worked out at 8 nM.

Regarding `COC[C@@H](c1ccc(C(F)(F)F)cc1)N1CCN(C2(C)CCN(C(=O)c3c(C)nn(OCc4ccccc4)c3C)CC2)C[C@@H]1C`, the half-maximal inhibitory concentration (IC50) in data set [1] is 0.4 nM.

A word on the melting point: it is the temperature, or range, at which the solid turns liquid. As a reminder, the IC50 is the point on the concentration scale where inhibition reaches its midpoint.
